# Laboratory results reported in PubChem BioAssay (NCI).
#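 Five concentrations, 48 hours, 96-well plates. TGI denotes the concentration required for complete inhibition of growth.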
# Assays:
# Test in all cases: NCI-60 cell line screen, 48 h
# HCT-15 colon = system: HCT-15 colon
# HL-60(TB) leukemia = system: HL-60(TB) leukemia
# MDA-N = system: MDA-N
# BT-549 breast = system: BT-549 breast
# TK-10 renal = system: TK-10 renal
# MDA-MB-231 breast = system: MDA-MB-231 breast
# T-47D breast = system: T-47D breast
# M14 melanoma = system: M14 melanoma
# A549 NSCLC = system: A549 NSCLC
# OVCAR-8 ovarian = system: OVCAR-8 ovarian
# HCC-2998 colon = system: HCC-2998 colon
# OVCAR-5 ovarian = system: OVCAR-5 ovarian
# NCI-H460 lung = system: NCI-H460 lung
# HOP-92 NSCLC = system: HOP-92 NSCLC
# DU-145 prostate = system: DU-145 prostate
# SF-539 CNS = system: SF-539 CNS
# RPMI-8226 leukemia = system: RPMI-8226 leukemia
# SF-268 CNS = system: SF-268 CNS
# MALME-3M melanoma = system: MALME-3M melanoma
# CCRF-CEM leukemia = system: CCRF-CEM leukemia
# OVCAR-4 ovarian = system: OVCAR-4 ovarian
# SK-OV-3 ovarian = system: SK-OV-3 ovarian
# HCT-116 colon = system: HCT-116 colon
# SK-MEL-5 melanoma = system: SK-MEL-5 melanoma
# RXF 393 renal = system: RXF 393 renal
# PC-3 prostate = system: PC-3 prostate
# HOP-62 NSCLC = system: HOP-62 NSCLC
# K-562 leukemia = system: K-562 leukemia
# LOX IMVI melanoma = system: LOX IMVI melanoma
# SNB-75 CNS = system: SNB-75 CNS
# NCI/ADR-RES ovarian = system: NCI/ADR-RES ovarian
# UACC-62 melanoma = system: UACC-62 melanoma
# IGROV1 ovarian = system: IGROV1 ovarian
# EKVX NSCLC = system: EKVX NSCLC
# NCI-H23 lung = system: NCI-H23 lung
# NCI-H522 lung = system: NCI-H522 lung
# MDA-MB-435 = system: MDA-MB-435
# SK-MEL-2 melanoma = system: SK-MEL-2 melanoma
# OVCAR-3 ovarian = system: OVCAR-3 ovarian
# UACC-257 melanoma = system: UACC-257 melanoma
# ACHN renal = system: ACHN renal
# KM12 colon = system: KM12 colon
# SNB-19 CNS = system: SNB-19 CNS
# CAKI-1 renal = system: CAKI-1 renal
# 786-0 renal = system: 786-0 renal
# U251 CNS = system: U251 CNS
# SW-620 colon = system: SW-620 colon
# MCF7 breast = system: MCF7 breast
# SF-295 CNS = system: SF-295 CNS
# NCI-H226 lung = system: NCI-H226 lung
# HS 578T breast = system: HS 578T breast
# COLO 205 colon = system: COLO 205 colon
# MOLT-4 leukemia = system: MOLT-4 leukemia
# SN12C renal = system: SN12C renal
# SK-MEL-28 melanoma = system: SK-MEL-28 melanoma
# SR leukemia = system: SR leukemia
# A498 renal = system: A498 renal
# HT29 colon = system: HT29 colon
# XF 498 CNS = system: XF 498 CNS
# RXF-631 renal = system: RXF-631 renal
# DMS 114 small cell lung = system: DMS 114 small cell lung
# DLD-1 colon = system: DLD-1 colon
# KM20L2 colon = system: KM20L2 colon
# UO-31 renal = system: UO-31 renal
# M19-MEL melanoma = system: M19-MEL melanoma
# DMS 273 small cell lung = system: DMS 273 small cell lung
compound,measurement,setting,value
CCn1sc2ccccc2c1=O,TGI,HCT-15 colon,27.5 µM
same,TGI,HL-60(TB) leukemia,13 µM
same,TGI,MDA-N,8.99 µM
same,TGI,BT-549 breast,25.7 µM
same,TGI,TK-10 renal,30.9 µM
same,TGI,MDA-MB-231 breast,27.2 µM
same,TGI,T-47D breast,35.2 µM
same,TGI,M14 melanoma,12 µM
same,TGI,A549 NSCLC,40.4 µM
same,TGI,OVCAR-8 ovarian,35.8 µM
same,TGI,HCC-2998 colon,34 µM
same,TGI,OVCAR-5 ovarian,> 27.5 µM
same,TGI,NCI-H460 lung,> 100 µM
same,TGI,HOP-92 NSCLC,22.5 µM
same,TGI,DU-145 prostate,49.6 µM
same,TGI,SF-539 CNS,30.8 µM
same,TGI,RPMI-8226 leukemia,> 100 µM
same,TGI,SF-268 CNS,34.6 µM
same,TGI,MALME-3M melanoma,39.6 µM
same,TGI,CCRF-CEM leukemia,> 48.2 µM
same,TGI,OVCAR-4 ovarian,89.8 µM
same,TGI,SK-OV-3 ovarian,> 54.9 µM
same,TGI,HCT-116 colon,30.7 µM
same,TGI,SK-MEL-5 melanoma,25 µM
same,TGI,RXF 393 renal,11.7 µM
same,TGI,PC-3 prostate,29.3 µM
same,TGI,HOP-62 NSCLC,34.3 µM
same,TGI,K-562 leukemia,> 100 µM
same,TGI,LOX IMVI melanoma,7.73 µM
same,TGI,SNB-75 CNS,26.6 µM
same,TGI,NCI/ADR-RES ovarian,69.3 µM
same,TGI,UACC-62 melanoma,29.5 µM
same,TGI,IGROV1 ovarian,19.6 µM
same,TGI,EKVX NSCLC,38.2 µM
same,TGI,NCI-H23 lung,34.7 µM
same,TGI,NCI-H522 lung,5.32 µM
same,TGI,MDA-MB-435,5.82 µM
same,TGI,SK-MEL-2 melanoma,53.9 µM
same,TGI,OVCAR-3 ovarian,29.7 µM
same,TGI,UACC-257 melanoma,32.7 µM
same,TGI,ACHN renal,20.5 µM
same,TGI,KM12 colon,18.8 µM
same,TGI,SNB-19 CNS,32.9 µM
same,TGI,CAKI-1 renal,11.4 µM
same,TGI,786-0 renal,6.87 µM
same,TGI,U251 CNS,16.1 µM
same,TGI,SW-620 colon,> 58.4 µM
same,TGI,MCF7 breast,26.8 µM
same,TGI,SF-295 CNS,> 55.1 µM
same,TGI,NCI-H226 lung,50.7 µM
same,TGI,HS 578T breast,32.4 µM
same,TGI,COLO 205 colon,29.3 µM
same,TGI,MOLT-4 leukemia,> 100 µM
same,TGI,SN12C renal,22.7 µM
same,TGI,SK-MEL-28 melanoma,36 µM
same,TGI,SR leukemia,> 100 µM
same,TGI,A498 renal,> 60 µM
same,TGI,HT29 colon,34 µM
O=S(=O)(c1ccccc1)C1CN2OC1(S(=O)(=O)c1ccccc1)CC2c1ccc(Br)cc1 (configuration not stated),TGI,HCT-15 colon,> 100 µM
same,TGI,HL-60(TB) leukemia,> 100 µM
same,TGI,TK-10 renal,> 100 µM
same,TGI,M14 melanoma,> 100 µM
same,TGI,XF 498 CNS,57.5 µM
same,TGI,A549 NSCLC,> 100 µM
same,TGI,OVCAR-8 ovarian,> 100 µM
same,TGI,HCC-2998 colon,> 100 µM
same,TGI,OVCAR-5 ovarian,> 100 µM
same,TGI,RXF-631 renal,> 100 µM
same,TGI,DMS 114 small cell lung,> 100 µM
same,TGI,NCI-H460 lung,> 100 µM
same,TGI,HOP-92 NSCLC,> 100 µM
same,TGI,SF-539 CNS,89.9 µM
same,TGI,DLD-1 colon,> 100 µM
same,TGI,RPMI-8226 leukemia,> 100 µM
same,TGI,SF-268 CNS,> 100 µM
same,TGI,MALME-3M melanoma,> 100 µM
same,TGI,CCRF-CEM leukemia,> 100 µM
same,TGI,OVCAR-4 ovarian,> 100 µM
same,TGI,SK-OV-3 ovarian,> 100 µM
same,TGI,KM20L2 colon,> 100 µM
same,TGI,HCT-116 colon,> 100 µM
same,TGI,SK-MEL-5 melanoma,> 100 µM
same,TGI,RXF 393 renal,46.5 µM
same,TGI,HOP-62 NSCLC,> 100 µM
same,TGI,K-562 leukemia,> 100 µM
same,TGI,LOX IMVI melanoma,> 100 µM
same,TGI,SNB-75 CNS,22.1 µM
same,TGI,UACC-62 melanoma,> 100 µM
same,TGI,IGROV1 ovarian,> 100 µM
same,TGI,EKVX NSCLC,> 100 µM
same,TGI,NCI-H23 lung,> 100 µM
same,TGI,NCI-H522 lung,> 100 µM
same,TGI,SK-MEL-2 melanoma,> 100 µM
same,TGI,OVCAR-3 ovarian,> 100 µM
same,TGI,UACC-257 melanoma,> 100 µM
same,TGI,ACHN renal,> 100 µM
same,TGI,KM12 colon,> 100 µM
same,TGI,SNB-19 CNS,> 100 µM
same,TGI,CAKI-1 renal,> 100 µM
same,TGI,786-0 renal,> 100 µM
same,TGI,U251 CNS,> 100 µM
same,TGI,UO-31 renal,> 100 µM
same,TGI,SW-620 colon,> 100 µM
same,TGI,M19-MEL melanoma,> 100 µM
same,TGI,SF-295 CNS,> 100 µM
same,TGI,NCI-H226 lung,> 100 µM
same,TGI,MOLT-4 leukemia,> 100 µM
same,TGI,SN12C renal,> 100 µM
same,TGI,SK-MEL-28 melanoma,> 100 µM
same,TGI,A498 renal,> 100 µM
same,TGI,HT29 colon,> 100 µM
same,TGI,DMS 273 small cell lung,> 100 µM
